Data as given in patent publication US4499104A, “Imidazole compound, the process for its preparation, and therapeutically active compositions containing same” (priority 1976, dated 1985).
Entries after “also recorded” stand apart in the source; their conditions may differ.

Legend:
Rat [1] = assay: Acute toxicity, rat
rats [2] = assay: Chronic toxicity, first experiment (60 days); format: in vivo, Wistar-Ocefa rats; details: 60 days
Description: (§1) Wistar-Ocefa rats of both sexes weighing 70-90 g were used, divided into groups of 30 animals (15 males and 15 females) to a total of […].
(§2) Chlorophenazole and phenylbutazone (reference drug) were administered orally for a period of 60 days in doses of 30-60 mg/kg of chlorophenazole and 8-160 mg/kg of phenylbutazone (first experiment) and for a period of 5 months in doses of 6-12 mg/kg of chlorophenazole and 16 mg/kg of phenylbutazone (second experiment).
(§3) The following parameters were determined periodically: behavior, general state, food consumption, body weight, red blood cell number, white blood cell number, leucocite formula, hemoglobin, hematocrit, globular value, total proteins, glycemia, azotemia, cholesterol, total lipids, triglycerides, creatinine, GOT, GPT, urine analysis. At the end of the experiment the animals were sacrificed, their general state was observed, the following organs were weighed: liver, spleen, kidneys, supranenes, ovary and testicles, lungs, heart, stomach.

[3] = Pulminary edema by carrageen (Sancilio method, pleural exudate); format: in vivo, Wistar-Roux-Ocefa rats
Description: Using the Sancilio method (Sancilio F. L., J. Pharmacol. Exptl. Therap., 168, 199 (1969); Sancilio L. F. Rodrigues R., Proc. Soc. Exptl. Biol. Med., 123, 707 (1969); Sancilio L. F. Lawrence R., Proc. Soc. Exptl. Biol. Med., 127, 597 (1968), pulminary irritation was induced in Wistar-Roux-Ocefa rats and the capacity of chlorophenazole and other drugs to prevent production of pleural exudate was measured. 5 ml of a 0.025% carrageen solution and 0.075% Evans blue were injected into the pleurea.
The action of chlorophenazole, mepyrazole and phenylbutazone were evaluated from the quantity of exudate present in the pleural cavity after 1 and 6 hours.

rats [4] = assay: Chronic toxicity, second experiment (5 months); format: in vivo, Wistar-Ocefa rats; details: for cholesterol: male rats
Description: as §1, §2, §3

[5] = Antipyretic activity, hyperthermia by beer yeast in rat; format: in vivo, Wistar stock; details: oral, 1/10 of DL50; chlorophenazole 50 mg/kg, phenylbutazone 35 mg/kg
Description: It was then measured in the rat using 10 animals of Wistar stock per group weighing 170-200 g, made hyperthermal by subcutaneous injection of a 10% beer yeast suspension in distilled water.
The compounds awere administered orally 60 minutes after the induction of fever in doses equal to 1/10 of the DL50. Readings were taken at 30 minute intervals for 5 hours.

[6] = Anticonvulsive activity against cardiazole; format: in vivo, Rockland-Ocefa mice; details: for Protection from convulsivant cardiazole, first value: first of two values; for Protection from convulsivant cardiazole, second value: second of two values
Description: Rockland-Ocefa mice of both sexes weighing 22±3 g and fasting for 16 hours were used.

[7] = Edema by carrageen (rat paw), antiedematous activity; format: in vivo, Rats of the Wistar-Roux-Ocefa stock
Description: A 1% physiological solution of carrageen was used. Rats of the Wistar-Roux-Ocefa stock having a weight of 150±30 g were used. The drugs were suspended in 1% carboxymethylcellulose or dissolved in distilled water and administered orally one hour before the inflammatory agent in a volume of 0.5 ml/100 g. The carrageen was adminstered subcutaneously in the subplanetary region of one of the rear paws. The volume of the paw was measured platysmagraphically initially and then after 1.5 hour, 3 hours and 5 hours after administering the carrageen. One inflammation unit was defined as the displacement of 0.01 ml of Hg.
The edema was evaluated as the difference in volume of the rear paw before and after the carrageen. The DE 50 was calculated by the probits method and graphically. The comparison drugs used were phenylbutazone and niflumic acid.

Rabbit = assay: Acute toxicity, rabbit; format: in vivo; details: intravenous injection
Description: (b) Rabbit: by intravenous injection DL100 =55 mg/kg

in vivo = details: rat
[8] = Stretching by acetic acid (chemical stimulus), analgesic activity; format: in vivo, mice, Rockland-Roux-Ocefa stock
Description: Twelve mice of both sexes, Rockland-Roux-Ocefa stock of weight 23-25 g were used per group. The drugs were administered orally 30 minutes before i.p. injection of 0.1 ml/10 g of 0.6% acetic acid.

[9] = Action on sleep by barbiturates; format: in vivo, Wistar-Ocefa rats
Description: […] Loss of the redressment reflex was taken to indicate commencement of sleep. The chlorophenazone was administered orally with a dose of 1/10 of the DL50. The induction time and the duration of sleep were measured.

Dog = assay: Acute toxicity, dog; format: in vivo
Rat [10] = details: in vivo
[11] = Antipyretic activity, hyperthermia by lysate of Neisseria perflava in rabbit; format: in vivo, male albino rabbits; details: oral
Description: This was first studied in the rabbit, using 6 male albino rabbits of 3-3.5 kg per group, made hyperthermal by i.v. injection of 0.5 ml/kg of a lysate of Neisseria perflava. The rectal temperature was determined by thermocouples every 60 minutes for 3 hours. The difference in temperature was calculated between maximum elevation and base temperature at each time. The drug was administered orally.

[12] = chlorophenazole 51.5 mg/kg oral + pentobarbital sodium 20 mg/kg

In the case of `Cc1[nH]cnc1-c1ccc(Cl)cc1` [Chlorophenazole, 4-(p-chlorophenyl)-5-methylimidazole], the symptoms preceding death (Rat [1]; rat and mouse, acute toxicity) is reported as “reduction in spontaneous motility, sedation, hypotherma, paralysis”, the “acute toxicity values and therapeutic index relative to phenylbutazone” value (Rat [1]; summary) is reported as “well in excess of those for phenylbutazone” and the stomach appearance (rats [2]) is reported as “distended and rose colored”. For the same molecule, the cholesterol (rats [2]; larger doses) was “the same for cholesterol at the larger doses”, the ml of exudate ([3]; 30 mg/Kg, pleural cavity) was 3.11 mL and the “activity on pleural exudate” value ([3]; exudate after 1 and 6 hours) was “significantly active”. The cholesterol (rats [4]; 6 mg/kg) was “significant alteration”, the glycemia (rats [4]; 12 mg/kg, female rats) was “small increase in glycemia” and the cholesterol (rats [4]; greater dose) was “not confirmed with the greater dose”. The “antipyretic activity relative to phenylbutazone” value [5] was “superiority over phenylbutazone”, the “Protection from convulsivant cardiazole, first value” (from here on “Protection … first value”) ([6]; 50 mg/kg, 15') was 6.23 and the “Protection from convulsivant cardiazole, second value” (from here on “Protection … second value”) ([6]; 50 mg/kg, 15') was 6.70. The “Protection … first value” ([6]; 50 mg/kg, 30') was 10.80, the “Protection … second value” ([6]; 50 mg/kg, 30') was 8.30 and the “Protection … first value” ([6]; 50 mg/kg, 90') was 8.10. The “Protection … second value” ([6]; 50 mg/kg, 90') was 7.0, the “Protection … first value” ([6]; 100 mg/kg, 15') was 9.90 and the “Protection … second value” ([6]; 100 mg/kg, 15') was 8.90. The “Protection … first value” ([6]; 100 mg/kg, 30') was 13.00, the “Protection … second value” ([6]; 100 mg/kg, 30') was 26.40 and the “Protection … first value” ([6]; 100 mg/kg, 90') was 28.70. The “Protection … second value” ([6]; 100 mg/kg, 90') was 20.00, the “Protection … second value” ([6]; 200 mg/kg, 15') was 9.2 and the “Protection … second value” ([6]; 200 mg/kg, 30') was 27.30. For the same molecule, the “Protection … second value” ([6]; 200 mg/kg, 90') was 30.10, the “framework of convulsive death” value ([6]; cardiazole and strychnine) was “does not modify the framework of convulsive death” and the premortal period ([6]; cardiazole and strychnine) was “significant elongation of the premortal period”. For the same molecule, the “Δ Volume of the inflamed paw” value ([7]; 10 mg/kg oral, 1.5 hours) was 15 UPI, the “Δ Volume of the inflamed paw” value ([7]; 10 mg/kg oral, 3 hours) was 35 UPI and the “Δ Volume of the inflamed paw” value ([7]; 10 mg/kg oral, 5 hours) was 58 UPI. The “Δ Volume of the inflamed paw” value ([7]; 20 mg/kg oral, 1.5 hours) was 15 UPI, the “Δ Volume of the inflamed paw” value ([7]; 20 mg/kg oral, 3 hours) was 29 UPI and the “Δ Volume of the inflamed paw” value ([7]; 20 mg/kg oral, 5 hours) was 44 UPI. For the same molecule, the “Δ Volume of the inflamed paw” value ([7]; 40 mg/kg oral, 1.5 hours) was 15 UPI, the “Δ Volume of the inflamed paw” value ([7]; 40 mg/kg oral, 3 hours) was 23 UPI and the “Δ Volume of the inflamed paw” value ([7]; 40 mg/kg oral, 5 hours) was 42 UPI. For the same molecule, the “IT (DL50/DE50)” value ([7]; DL50/DE50, os) was 73.60, the ED50 ([7]; Rattus norvegicus, po, os, probits method and graphically, read-out: DE50 (the source's name)) was 7 mg/kg and the “antiedematous activity relative to comparison drugs” value ([7]; oral) was “more active than phenylbutazone; also recorded: only slightly more active than niflumic acid”. The “antiinflamatory analgesic activity, overall comparison” value ([7]; summary of the tests) was “decidedly better than phenylbutazone, niflumic acid, clonixine or mepyrazole”, the DL100 (Rabbit) was 55 mg/kg and the “final framework (symptoms)” value (Rabbit) was “marked muscular hypotonia, an almost catatonic state and death by respiratory paralysis”. For the same molecule, the LD50 (in vivo; ip) was 135 mg/kg, the LD50 (in vivo; po) was 515 mg/kg and the “% effect” value ([8]; 21.3 mg/kg oral) was 18%. The “Number of stretches/20 min.” value ([8]; 21.3 mg/kg oral) was 70 stretches/20 min, the “% effect” value ([8]; 33.0 mg/kg oral) was 42% and the “Number of stretches/20 min.” value ([8]; 33.0 mg/kg oral) was 49 stretches/20 min. For the same molecule, the “% effect” value ([8]; 51.0 mg/kg oral) was 66%, the “Number of stretches/20 min.” value ([8]; 51.0 mg/kg oral) was 29 stretches/20 min and the analgesic activity ([8]; oral) was “very good analgesic activity, decidedly better than that of the clonixine (Table 5) and mepyrazole”. The “action on sleep by barbiturates” value ([9]; 1/10 of the DL50 oral) was “improves sleep by barbiturates”, the “Induction time” value [9, 12] was 2.9 min and the “Sleeping time” value [9, 12] was 65.2 min. For the same molecule, the DL100 (Dog) was 50 mg/kg, the “toxicity relative to niflumic acid” value (Rat [10]) was “much less toxic than the latter” and the “protection from temperature increase” value [11] was “clearly protected the animals from temperature increase”.
